Measurements as given in patent publication US20150053211A1, “Cleaning and safe mouth guard solution” (priority 2013, published 2015).

Assays:
S. aureus [1] = assay: Kill tests using S. aureus (SIK test); assay type: cell-based; conditions: LAE.HCl at 200 ppm versus a product containing 27% ethanol and 1890 ppm of essential oils
Description: One of the commercial products that was analyzed not only contains a large amount of ethanol, but contains three essential biocidal oils. Specifically it contains 900 ppm of eucalyptol, 490 ppm of Thymol, and 500 ppm of D-menthol, for a total of 1890 ppm of total active constituents. In contrast our invention is N^α-lauroyl-L-arginine-ethyl ester hydrochloride, also known as LAE.HCl, which is used as a preservative in the food and cosmetic industries. • 1. N^α—lauroyl-L-arginine-ethyl ester hydrochloride, (LAE.HCl) salt is naturally derived and metabolizes readily to L-arginine, an essential amino acid, lauric acid, and very low ppm amounts of ethanol. All degradation by products are found naturally in the body and are totally harmless. • 2. LAE.HCl has undergone extensive toxicity, and safety studies, and it is approved by the FDA and EPA for food and cosmetic industries. • 3. […] The formulation of our invention includes a natural sweetener xylitol. Xylitol is known to reduce cavities as well as inhibiting the adhesion of bacteria on enamel/dentin. The selection of xylitol has the above advantages over other natural or synthetic sweeteners. (“Science Daily”, Feb. 15, 2007) • 5. Substantivity product of this invention has been proven experimentally versus the existing commercial products resulting in longer-lasting efficacy, using a zone of inhibition tests
1. […]

S. aureus [2] = assay: Substantivity test on 100% cotton fabric, zone of inhibition (ZOI); assay type: cell-based; conditions: 600 ppm, dried on 100% cotton fabric, saliva added to plates
Description: 2. Substantivity tests on 100% cotton fabric using S. aureus as the microorganism/zone of inhibition (ZOI).
Both samples (600 ppm LAE.HCl and control) were applied to 100% cotton fabric at the same volumes and allowed to dry at room temperature. Samples were then placed in an agar plates inoculated with S. aureus and incubated. To these plates was added saliva from the same person to determine if either sample would produce a zone inhibition. A negative control was also run at the same time. Only the product of this invention gave a positive ZOI.

SMILES: CCCCCCCCCCCC(=O)N[C@@H](CCCNC(=N)N)C(=O)OCC.Cl [LAE.HCl, N^α-lauroyl-L-arginine-ethyl ester hydrochloride]
- kill (S. aureus [1]): comparable kill
- zone of inhibition (ZOI) (S. aureus [2]): positive ZOI
